This passage reports EC50 results from patent US11623924B2, “Modulators of alpha-1 antitrypsin” (Vertex Pharmaceuticals Incorporated, priority 2018, dated 2023).

The structures appear in SMILES notation.

The test has as its target T1, NL20 human bronchial epithelial cells expressing human Z-AAT (Homo sapiens, UniProt P01009, E366K).
T1 construct: expressed in transfected cells; host or cells: NL20 human bronchial epithelial cells (NL20-SI line, doxycycline added)
Description: AAT Function Assay (MSD Assay NL20-SI Cell Line). The class given is cell-based. The note with it: functionally active AAT (AAT-hNE complex) in supernatant of NL20 cells expressing human Z-AAT; read-out: NL20 Func. (EC50). Summed up: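 NL20 cells expressing Z-AAT, seeded 16,000 cells/well, received compound with doxycycline (0.1 μM final) and were incubated overnight at 37° C. Supernatants, diluted 45-fold in total, reacted with excess human neutrophil elastase; AAT-elastase complex captured on anti-AAT plates, detected with Sulfo-tagged anti-elastase by MSD electrochemiluminescence, and quantified against M-AAT standards (0.156-320 ng/mL).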

T1 sequence (P01009 25-418 E366K): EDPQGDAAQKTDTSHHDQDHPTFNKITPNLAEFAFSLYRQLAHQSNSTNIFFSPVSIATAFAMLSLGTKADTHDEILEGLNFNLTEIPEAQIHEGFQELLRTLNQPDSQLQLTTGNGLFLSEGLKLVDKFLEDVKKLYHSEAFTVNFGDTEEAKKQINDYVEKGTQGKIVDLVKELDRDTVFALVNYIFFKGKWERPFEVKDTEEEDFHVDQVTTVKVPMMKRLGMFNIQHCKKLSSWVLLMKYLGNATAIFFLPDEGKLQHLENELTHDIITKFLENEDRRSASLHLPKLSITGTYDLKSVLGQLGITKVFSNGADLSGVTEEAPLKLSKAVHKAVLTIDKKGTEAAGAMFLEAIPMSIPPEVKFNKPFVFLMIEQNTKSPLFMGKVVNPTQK

What is called EC50 is the concentration giving half of the maximal effect. In the case of `CC(=O)N1CCC(Cc2c(C3CCOCC3)n(-c3ccc(F)cc3)c3cc4cn[nH]c4cc23)C1` (stereo in doubt) [Compound 213, 1-[(3S)-3-[[5-(4-fluorophenyl)-6-tetrahydropyran-4-yl-1H-pyrrolo[2,3-f]indazol-7-yl]methyl]pyrrolidin-1-yl]ethanone], the EC50 is > 3 µM.

On to `CC(C)(CC#N)c1c(CCC(=O)O)c2cc3[nH]ncc3cc2n1-c1ccc(F)cc1` [Compound 190, 3-[6-(2-cyano-1,1-dimethyl-ethyl)-5-(4-fluorophenyl)-1H-pyrrolo[2,3-f]indazol-7-yl]propanoic Acid], for which the concentration for a half-maximal effect (EC50) was > 3 µM.

As to `O=C(O)C1CC2(C1)CC(c1c(C3CCOCC3)n(-c3ccc(F)c(F)c3)c3cc4cn[nH]c4cc13)C2` (single isomer, unassigned) [Compound 68], the EC50 is < 1.16 µM.

For the compound `Cc1cc(-n2c(C(C)C)c(C#N)c3cc4[nH]ncc4cc32)ccc1F` [Compound 10, 5-(4-fluoro-3-methyl-phenyl)-6-isopropyl-1H-pyrrolo[2,3-f]indazole-7-carbonitrile], the EC50 was > 3 µM.

Take `COCC(C)(C)c1c(CC2CCS(=O)(=O)CC2)c2cc3[nH]ncc3cc2n1-c1ccc(F)cc1` [Compound 182]: the EC50 is 1.16 to 3 µM.

As to `O=C(O)C1CC2(C1)CC(c1c(C3CCOCC3)n(-c3ccc(F)c(F)c3)c3cc4cn[nH]c4cc13)C2` (single isomer, unassigned) [Compound 67], the 50% effective concentration (EC50) is < 1.16 µM.

Regarding `Cc1cc(-n2c(C3CCOCC3)c(C[C@H]3C[C@@H](C(=O)O)C3)c3cc4[nH]ncc4cc32)ccc1F` (single isomer, unassigned) [Compound 97], the EC50 was < 1.16 µM.

On to `O=C(O)c1ccc(C#Cc2c(C3CCOCC3)n(-c3ccc(F)cc3)c3cc4cn[nH]c4cc23)cc1` [Compound 215, 4-[2-[5-(4-fluorophenyl)-6-tetrahydropyran-4-yl-1H-pyrrolo[2,3-f]indazol-7-yl]ethynyl]benzoic Acid], for which the EC50 is < 1.16 µM.

For `C=Cc1c(C(C)C)n(-c2ccc(F)c(C)c2)c2cc3cn[nH]c3cc12` [Compound 12, 5-(4-fluoro-3-methyl-phenyl)-6-isopropyl-7-vinyl-1H-pyrrolo[2,3-f]indazole], the EC50 was > 3 µM.

`CC(C)c1c(C2CC3(CC(C(=O)O)C3)C2)c2cc3[nH]ncc3cc2n1-c1ccc(F)cc1` (single isomer, unassigned) [Compound 35, 6-[5-(4-fluorophenyl)-6-isopropyl-1H-pyrrolo[2,3-f]indazol-7-yl]spiro[3.3]heptane-2-carboxylic acid]: the EC50 was < 1.16 µM.

As to `O=C(O)[C@H]1C[C@H](c2c(C3CCOCC3)n(-c3ccc(F)cc3)c3cc4cn[nH]c4cc32)C1` [Compound 113], the concentration for a half-maximal effect (EC50) was in the range of 1.16 to 3 µM.

For `Cc1cc(-n2c(C(C)C)c(C3CC4(CC(C(=O)O)C4)C3)c3cc4[nH]nc(C)c4cc32)ccc1F` (racemic) [Compound 56, 6-[5-(4-fluoro-3-methyl-phenyl)-6-isopropyl-3-methyl-1H-pyrrolo[2,3-f]indazol-7-yl]spiro[3.3]heptane-2-carboxylic acid], the EC50 fell in the range of 1.16 to 3 µM.

Take `Cc1cc(-n2c(C(C)C)c(CCC(=O)O)c3cc4[nH]nc(C)c4cc32)ccc1F` [Compound 54, 3-[5-(4-fluoro-3-methyl-phenyl)-6-isopropyl-3-methyl-1H-pyrrolo[2,3-f]indazol-7-yl]propanoic Acid]: the EC50 was > 3 µM.

Turning to `COCCc1c(C(C)(C)COC)n(-c2ccc(F)cc2)c2cc3cn[nH]c3cc12` [Compound 178], the EC50 lay in the range of 1.16 to 3 µM.

Turning to `Cc1cc(-n2c(C3CCOCC3)c(CC(C)C(=O)O)c3cc4[nH]ncc4cc32)ccc1F` (racemic) [Compound 105], the half-maximal effective concentration (EC50) lay in the range of 1.16 to 3 µM.

Turning to `O=C(O)[C@H]1CC[C@@H](Cc2c(C3CCOCC3)n(-c3ccc(F)c(F)c3)c3cc4cn[nH]c4cc23)CC1` (single isomer, unassigned) [Compound 73], the EC50 was < 1.16 µM.

Turning to `COCC(C)(C)c1c(C2CC(C)(C(=O)O)C2)c2cc3[nH]ncc3cc2n1-c1ccc(F)cc1` (mixture of isomers) [Compound 176], the concentration for a half-maximal effect (EC50) was < 1.16 µM.

On to `O=C(O)C1CC2(C1)CC(c1c(C3CCOC3)n(-c3ccc(F)cc3)c3cc4cn[nH]c4cc13)C2` (single isomer, unassigned) [Compound 142, 6-[5-(4-fluorophenyl)-6-tetrahydrofuran-3-yl-1H-pyrrolo[2,3-f]indazol-7-yl]spiro[3.3]heptane-2-carboxylic Acid], for which the EC50 is > 3 µM.

Regarding `COCC(C)(C)c1c(CCCNC(=O)OCc2ccccc2)c2cc3[nH]ncc3cc2n1-c1ccc(F)cc1` [Compound 181], the half-maximal effective concentration (EC50) is > 3 µM.

As for `Cc1cc(-n2c(C3CCOCC3)c(C3CC4(CC(C(=O)O)C4)C3)c3cc4[nH]nc(C)c4cc32)ccc1F` (racemic) [Compound 126, 6-[5-(4-fluoro-3-methyl-phenyl)-3-methyl-6-tetrahydropyran-4-yl-1H-pyrrolo[2,3-f]indazol-7-yl]spiro[3.3]heptane-2-carboxylic acid], the concentration giving a half-maximal response (EC50) lay within 1.16 to 3 µM.

With `Cc1cc(-n2c(C(C)C)c(CC(C)C(=O)O)c3cc4[nH]ncc4cc32)ccc1F` (single isomer, unassigned) [Compound 21], the EC50 is < 1.16 µM.

`Cc1n[nH]c2cc3c(C4CC5(CC(C(=O)O)C5)C4)c(C4CCOCC4)n(-c4ccc(F)c(F)c4)c3cc12` (racemic) [Compound 129, 6-[5-(3,4-difluorophenyl)-3-methyl-6-tetrahydropyran-4-yl-1H-pyrrolo[2,3-f]indazol-7-yl]spiro[3.3]heptane-2-carboxylic Acid]: the EC50 was > 3 µM.

For the compound `Cn1cc(CCCc2c(C3CCOCC3)n(-c3ccc(F)cc3)c3cc4cn[nH]c4cc23)cn1` [Compound 144], the EC50 was < 1.16 µM.

Consider `O=C(O)CCc1c(C2CCOCC2)n(-c2ccc(F)c(Cl)c2)c2cc3cn[nH]c3cc12` [Compound 82], for which the concentration for a half-maximal effect (EC50) was > 3 µM.

Turning to `N#CCCc1c(C2CCOCC2)n(-c2ccc(F)cc2)c2cc3cn[nH]c3cc12` [Compound 146], the EC50 was in the range of 1.16 to 3 µM.

Regarding `[2H]C([2H])(CC(=O)O)c1c(C(C)C)n(-c2ccc(F)cc2)c2cc3cn[nH]c3cc12` [Compound 169, 3,3-dideuterio-3-[5-(4-fluorophenyl)-6-isopropyl-1H-pyrrolo[2,3-f]indazol-7-yl]propanoic Acid], the EC50 lay within 1.16 to 3 µM.

Consider `CC(C)c1c(CCC(=O)O)c2cc3[nH]ncc3cc2n1-c1cccc(C(F)(F)F)c1` [Compound 40, 3-[6-isopropyl-5-[3-(trifluoromethyl)phenyl]-1H-pyrrolo[2,3-f]indazol-7-yl]propanoic Acid], for which the EC50 is > 3 µM.

As for `O=C(O)C1CC2(C1)CC(c1c(C3CCOCC3)n(-c3ccc(F)cc3)c3cc4cn[nH]c4c(F)c13)C2` (single isomer, unassigned) [Compound 137, 6-[8-fluoro-5-(4-fluorophenyl)-6-tetrahydropyran-4-yl-1H-pyrrolo[2,3-f]indazol-7-yl]spiro[3.3]heptane-2-carboxylic acid], the concentration giving a half-maximal response (EC50) is < 1.16 µM.

As for `CC(C)c1c(CCC(=O)O)c2cc3[nH]ncc3cc2n1-c1cccc(C(F)F)c1` [Compound 37, 3-[5-[3-(difluoromethyl)phenyl]-6-isopropyl-1H-pyrrolo[2,3-f]indazol-7-yl]propanoic Acid], the EC50 was > 3 µM.

Regarding `Cc1cc(-n2c(C3CCOCC3)c(CC3(C(=O)O)CC3)c3cc4[nH]ncc4cc32)ccc1F` [Compound 87], the EC50 is 1.16 to 3 µM.
